pIC50: −log10 of the molar value. ≈ marks a conversion by molar mass, not a printed value. Where two headings read alike, the source gives them in different places.
Experiments:
C. parapsilosis = assay: Antifungal Activity Assay (broth microtiter MIC), C. parapsilosis; assay type: cell-based, Candida parapsilosis; conditions: Lodderomyces parapsilosis, ATCC22019, 48 h
Summary of the method: (§1)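 Broth microdilution per CLSI M27-A3 in RPMI 1640+MOPS, inoculum 2.5×10^3 CFU/mL final from overnight Sabouraud dextrose agar cultures at 35° C. Compounds diluted from DMSO stock to 128 μg/mL in water. MIC read visually versus growth control at 48 h.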

C. albicans = assay: Antifungal Activity Assay (broth microtiter MIC), C. albicans; assay type: cell-based, Candida albicans; conditions: Candida albicans, ATCC90028, 48 h
Summary of the method: as §1

fungal (fACC2) = fungal (fACC2) (UniProt Q00955); conditions: read-out: fACC2 (in vitro ACC2 Inhibition Assay, IC50), ADP-Glo, 5 nM ACC2, 20 μM ATP, 20 μM acetyl-CoA
Sequence of fungal (fACC2) (Q00955 whole entry): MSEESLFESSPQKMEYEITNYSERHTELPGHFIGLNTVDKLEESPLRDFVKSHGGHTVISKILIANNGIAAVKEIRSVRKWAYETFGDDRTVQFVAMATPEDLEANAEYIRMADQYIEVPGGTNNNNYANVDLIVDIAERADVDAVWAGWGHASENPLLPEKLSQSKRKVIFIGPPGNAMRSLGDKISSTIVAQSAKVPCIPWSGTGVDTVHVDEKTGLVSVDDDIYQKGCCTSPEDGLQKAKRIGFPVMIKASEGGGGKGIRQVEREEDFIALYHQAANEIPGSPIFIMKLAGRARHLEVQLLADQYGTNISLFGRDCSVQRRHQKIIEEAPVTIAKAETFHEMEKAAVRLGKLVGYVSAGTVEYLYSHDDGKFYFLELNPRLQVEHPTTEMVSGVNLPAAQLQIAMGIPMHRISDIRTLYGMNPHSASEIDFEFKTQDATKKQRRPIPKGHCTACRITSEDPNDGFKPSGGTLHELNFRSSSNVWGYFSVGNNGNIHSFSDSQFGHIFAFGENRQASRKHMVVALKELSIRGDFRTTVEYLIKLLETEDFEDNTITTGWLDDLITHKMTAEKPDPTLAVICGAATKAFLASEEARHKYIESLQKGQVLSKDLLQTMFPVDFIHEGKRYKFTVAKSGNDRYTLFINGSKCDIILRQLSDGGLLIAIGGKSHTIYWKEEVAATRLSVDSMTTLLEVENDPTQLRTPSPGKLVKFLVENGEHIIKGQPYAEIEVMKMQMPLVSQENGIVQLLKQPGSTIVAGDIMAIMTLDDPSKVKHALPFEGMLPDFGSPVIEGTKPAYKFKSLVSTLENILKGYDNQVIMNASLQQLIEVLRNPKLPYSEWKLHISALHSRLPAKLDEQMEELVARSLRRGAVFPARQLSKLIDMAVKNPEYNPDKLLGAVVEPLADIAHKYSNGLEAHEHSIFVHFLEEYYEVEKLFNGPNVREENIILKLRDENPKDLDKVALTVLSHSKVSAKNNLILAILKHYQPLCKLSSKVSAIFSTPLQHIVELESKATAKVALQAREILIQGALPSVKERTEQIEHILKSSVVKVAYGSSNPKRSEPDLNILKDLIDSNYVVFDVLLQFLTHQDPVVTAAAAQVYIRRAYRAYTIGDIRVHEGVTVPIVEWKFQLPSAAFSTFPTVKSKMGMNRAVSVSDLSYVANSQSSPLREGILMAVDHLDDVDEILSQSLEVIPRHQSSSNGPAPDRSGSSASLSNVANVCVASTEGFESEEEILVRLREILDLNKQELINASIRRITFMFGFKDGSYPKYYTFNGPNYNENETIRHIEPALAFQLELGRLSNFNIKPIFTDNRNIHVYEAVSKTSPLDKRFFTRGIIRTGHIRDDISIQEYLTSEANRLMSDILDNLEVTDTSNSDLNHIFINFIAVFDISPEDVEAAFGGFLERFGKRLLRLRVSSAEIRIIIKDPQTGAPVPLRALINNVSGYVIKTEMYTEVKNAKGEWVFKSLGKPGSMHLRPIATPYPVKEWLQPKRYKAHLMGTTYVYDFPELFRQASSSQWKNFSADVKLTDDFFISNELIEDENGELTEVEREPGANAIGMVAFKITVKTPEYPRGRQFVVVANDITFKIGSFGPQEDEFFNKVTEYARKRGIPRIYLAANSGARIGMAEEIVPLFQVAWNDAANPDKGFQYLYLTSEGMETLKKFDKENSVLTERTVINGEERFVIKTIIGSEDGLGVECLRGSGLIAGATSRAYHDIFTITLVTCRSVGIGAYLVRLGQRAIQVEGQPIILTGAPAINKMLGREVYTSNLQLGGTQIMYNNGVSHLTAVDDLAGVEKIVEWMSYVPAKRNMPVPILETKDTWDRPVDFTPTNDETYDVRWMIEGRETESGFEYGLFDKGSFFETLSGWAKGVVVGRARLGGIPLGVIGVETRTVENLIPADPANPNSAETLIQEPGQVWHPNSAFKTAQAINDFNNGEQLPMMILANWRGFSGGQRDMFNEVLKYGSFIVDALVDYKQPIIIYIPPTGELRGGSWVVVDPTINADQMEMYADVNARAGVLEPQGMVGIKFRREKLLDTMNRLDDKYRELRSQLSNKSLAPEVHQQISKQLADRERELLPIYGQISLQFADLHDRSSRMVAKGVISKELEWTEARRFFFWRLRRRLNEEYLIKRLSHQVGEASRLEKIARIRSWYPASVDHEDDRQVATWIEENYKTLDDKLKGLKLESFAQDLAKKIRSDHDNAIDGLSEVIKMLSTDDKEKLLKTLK

C. krusei = assay: Antifungal Activity Assay (broth microtiter MIC), C. krusei; assay type: cell-based, Candida krusei; conditions: Pichia kudriavzevii, ATCC6258, 48 h
Summary of the method: as §1

human (hACC2) = human (hACC2) (Homo sapiens, UniProt O00763); assay: In vitro ACC inhibition assay (ADP-Glo), hACC2; assay type: biochemical; conditions: 5 nM ACC2, 20 μM ATP, 20 μM acetyl-CoA
Sequence of human (hACC2) (O00763 whole entry): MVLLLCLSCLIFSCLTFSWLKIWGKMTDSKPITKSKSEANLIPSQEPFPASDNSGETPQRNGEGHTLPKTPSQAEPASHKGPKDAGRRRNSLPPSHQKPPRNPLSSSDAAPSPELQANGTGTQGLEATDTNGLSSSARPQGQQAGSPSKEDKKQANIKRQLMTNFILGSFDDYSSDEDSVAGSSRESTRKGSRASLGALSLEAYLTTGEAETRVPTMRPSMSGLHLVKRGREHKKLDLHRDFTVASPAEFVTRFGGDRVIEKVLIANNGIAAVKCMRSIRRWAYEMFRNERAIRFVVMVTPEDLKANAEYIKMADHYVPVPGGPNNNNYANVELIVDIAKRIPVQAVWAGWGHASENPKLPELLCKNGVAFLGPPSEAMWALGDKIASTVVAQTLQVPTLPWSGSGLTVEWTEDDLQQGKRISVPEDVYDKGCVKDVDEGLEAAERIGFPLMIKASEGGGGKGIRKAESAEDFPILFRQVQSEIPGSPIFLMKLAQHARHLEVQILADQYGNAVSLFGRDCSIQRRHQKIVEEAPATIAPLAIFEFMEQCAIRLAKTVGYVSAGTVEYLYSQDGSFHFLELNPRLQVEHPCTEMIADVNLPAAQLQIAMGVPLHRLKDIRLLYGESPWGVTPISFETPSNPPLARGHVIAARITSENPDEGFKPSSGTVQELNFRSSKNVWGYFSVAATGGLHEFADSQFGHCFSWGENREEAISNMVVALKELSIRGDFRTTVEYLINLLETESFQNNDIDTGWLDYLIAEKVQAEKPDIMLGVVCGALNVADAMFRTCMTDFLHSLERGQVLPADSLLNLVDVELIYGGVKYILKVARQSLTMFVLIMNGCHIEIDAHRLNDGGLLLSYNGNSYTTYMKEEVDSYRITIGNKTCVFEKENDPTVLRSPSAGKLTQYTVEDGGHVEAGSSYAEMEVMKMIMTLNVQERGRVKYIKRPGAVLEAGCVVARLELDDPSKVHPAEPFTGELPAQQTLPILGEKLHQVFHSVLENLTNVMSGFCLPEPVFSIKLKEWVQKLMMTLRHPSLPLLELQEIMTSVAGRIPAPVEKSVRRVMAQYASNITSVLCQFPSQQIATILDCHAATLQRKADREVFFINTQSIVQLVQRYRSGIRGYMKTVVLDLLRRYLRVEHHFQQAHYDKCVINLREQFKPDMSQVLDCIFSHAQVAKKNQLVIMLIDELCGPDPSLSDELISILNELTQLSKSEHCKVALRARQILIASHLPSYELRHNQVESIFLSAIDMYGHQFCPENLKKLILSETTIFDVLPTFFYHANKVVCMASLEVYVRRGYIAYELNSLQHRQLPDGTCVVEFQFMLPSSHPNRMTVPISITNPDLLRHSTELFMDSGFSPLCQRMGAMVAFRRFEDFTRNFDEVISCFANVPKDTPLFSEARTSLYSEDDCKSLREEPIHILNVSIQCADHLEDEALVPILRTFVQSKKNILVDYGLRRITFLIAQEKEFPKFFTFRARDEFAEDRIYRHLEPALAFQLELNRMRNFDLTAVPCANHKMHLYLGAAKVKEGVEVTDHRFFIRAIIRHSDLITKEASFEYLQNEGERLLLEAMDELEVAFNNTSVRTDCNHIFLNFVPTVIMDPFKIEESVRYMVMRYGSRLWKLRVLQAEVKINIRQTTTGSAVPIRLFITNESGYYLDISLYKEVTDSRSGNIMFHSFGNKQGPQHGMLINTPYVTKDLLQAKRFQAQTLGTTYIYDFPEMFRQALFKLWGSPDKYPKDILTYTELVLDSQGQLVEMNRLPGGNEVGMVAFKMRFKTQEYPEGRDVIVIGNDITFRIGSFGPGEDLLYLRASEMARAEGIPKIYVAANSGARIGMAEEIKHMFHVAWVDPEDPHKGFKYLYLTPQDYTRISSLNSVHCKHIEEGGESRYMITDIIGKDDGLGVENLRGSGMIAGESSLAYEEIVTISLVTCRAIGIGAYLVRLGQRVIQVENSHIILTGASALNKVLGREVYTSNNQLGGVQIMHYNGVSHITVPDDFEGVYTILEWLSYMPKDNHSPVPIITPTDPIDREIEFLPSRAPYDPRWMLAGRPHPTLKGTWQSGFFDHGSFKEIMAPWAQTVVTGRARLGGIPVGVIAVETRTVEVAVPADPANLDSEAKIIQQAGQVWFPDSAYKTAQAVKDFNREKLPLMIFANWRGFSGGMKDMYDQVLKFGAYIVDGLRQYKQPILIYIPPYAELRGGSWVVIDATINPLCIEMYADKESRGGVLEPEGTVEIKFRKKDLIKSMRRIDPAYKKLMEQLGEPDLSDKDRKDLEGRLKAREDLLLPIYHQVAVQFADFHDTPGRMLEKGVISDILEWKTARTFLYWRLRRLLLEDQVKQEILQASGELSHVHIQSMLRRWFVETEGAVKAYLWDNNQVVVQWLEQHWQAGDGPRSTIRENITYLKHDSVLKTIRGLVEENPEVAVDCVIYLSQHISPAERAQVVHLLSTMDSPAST
Description: The detailed procedure is as follows. […] 10 μL ADP glo reagent was added. […] 20 μL kinase detection reagent was added.

[1] = Table 3b (additional results), ATCC 22019, 3 replicates, MIC recorded at 48 h, read-out: MIC, C. parapsilosis ATCC 22019
[2] = Table 3b (additional results), ATCC 90028, 3 replicates, MIC recorded at 48 h, read-out: MIC, C. albicans ATCC 90028
[3] = Table 3b (additional results), ATCC 6258, 3 replicates, MIC recorded at 48 h, read-out: MIC, C. krusei ATCC 6258
[4] = read-out: MIC, C. parapsilosis ATCC 22019, Table 3b (additional results), 3 replicates, MIC recorded at 48 h
[5] = read-out: MIC, C. albicans ATCC 90028, Table 3b (additional results), 3 replicates, MIC recorded at 48 h
[6] = read-out: MIC, C. krusei ATCC 6258, Table 3b (additional results), 3 replicates, MIC recorded at 48 h

Structure (SMILES)	MIC (C. parapsilosis; [1]) [µg/mL]	MIC (C. albicans; [2]) [µg/mL]	pIC50 (fungal (fACC2); Table 2a)	pIC50 (fungal (fACC2); Table 2b, additional results)	MIC (C. krusei; [3]) [µg/mL]	pIC50 (human (hACC2); Table 2a)	pIC50 (human (hACC2); Table 2b, additional results)	MIC (C. parapsilosis; [4]) [µg/mL]	MIC (C. albicans; [5]) [µg/mL]	MIC (C. krusei; [6]) [µg/mL]
COc1ccc(F)cc1[C@H](Cn1c(=O)n([C@@H](C)C(=O)N(C)C(C)C)c(=O)c2c(C)c(-n3nccn3)sc21)OCC(C)(C)O [Compound I-170]	2.01 to 4 (≈ 3.26 to 6.49 µM)	0.25 to 1 (≈ 0.405 to 1.62 µM)	9.00 to 9.40	9.00 to 9.52	> 4.01	7.40 to 8.00	7.40 to 8.00	–	–	–
COc1ccc(F)cc1[C@H](Cn1c(=O)n([C@H](C)C(=O)NC(C)C)c(=O)c2c(C)c(-n3nccn3)sc21)OCC(C)(C)O [Compound I-171]	–	–	8.30 to 9.00	8.30 to 9.00	–	7.40 to 8.00	7.40 to 8.00	1.01 to 2 (≈ 1.68 to 3.32 µM)	1.01 to 2 (≈ 1.68 to 3.32 µM)	2.01 to 4 (≈ 3.34 to 6.64 µM)
COc1ccc(F)cc1[C@H](Cn1c(=O)n([C@@H](C)C(=O)NC(C)C)c(=O)c2c(C)c(-n3nccn3)sc21)OCC(C)(C)O [Compound I-172]	–	–	9.00 to 9.40	9.00 to 9.52	–	8.00 to 8.30	8.00 to 8.30	1.01 to 2 (≈ 1.68 to 3.32 µM)	1.01 to 2 (≈ 1.68 to 3.32 µM)	2.01 to 4 (≈ 3.34 to 6.64 µM)
COc1ccc(F)cc1[C@H](Cn1c(=O)n([C@H](C)C(N)=O)c(=O)c2c(C)c(-n3nccn3)sc21)OCC(C)(C)O [Compound I-173]	2.01 to 4 (≈ 3.59 to 7.14 µM)	0.25 to 1 (≈ 0.446 to 1.78 µM)	8.30 to 9.00	8.30 to 9.00	> 4.01	7.40 to 8.00	7.40 to 8.00	–	–	–
COc1ccc(F)cc1[C@H](Cn1c(=O)n([C@@H](C)C(N)=O)c(=O)c2c(C)c(-n3nccn3)sc21)OCC(C)(C)O [Compound I-174]	2.01 to 4 (≈ 3.59 to 7.14 µM)	0.25 to 1 (≈ 0.446 to 1.78 µM)	9.00 to 9.40	9.00 to 9.52	> 4.01	8.00 to 8.30	8.00 to 8.30	–	–	–
COc1ccc(F)cc1[C@H](Cn1c(=O)n([C@H](C)C(=O)N2CCCC2)c(=O)c2c(C)c(-n3nccn3)sc21)OCC(C)(C)O [Compound I-175]	1.01 to 2 (≈ 1.64 to 3.25 µM)	0.25 to 1 (≈ 0.407 to 1.63 µM)	9.00 to 9.40	9.00 to 9.52	2.01 to 4 (≈ 3.27 to 6.51 µM)	8.00 to 8.30	8.00 to 8.30	–	–	–
COc1ccc(F)cc1[C@H](Cn1c(=O)n([C@@H](C)C(=O)N2CCCC2)c(=O)c2c(C)c(-n3nccn3)sc21)OCC(C)(C)O [Compound I-176]	1.01 to 2 (≈ 1.64 to 3.25 µM)	0.25 to 1 (≈ 0.407 to 1.63 µM)	8.30 to 9.00	8.30 to 9.00	2.01 to 4 (≈ 3.27 to 6.51 µM)	7.40 to 8.00	7.40 to 8.00	–	–	–
COc1ccccc1[C@@H](O)Cn1c(=O)n([C@@H](C)C(=O)N(C)C(C)C)c(=O)c2c(C)c(-n3nccn3)sc21 [Compound I-200]	2.01 to 4 (≈ 3.82 to 7.6 µM)	2.01 to 4 (≈ 3.82 to 7.6 µM)	–	8.30 to 9.00	2.01 to 4 (≈ 3.82 to 7.6 µM)	–	7.40 to 8.00	–	–	–
COc1ccccc1[C@@H](O)Cn1c(=O)n([C@@H](C)C(=O)NC(C)C)c(=O)c2c(C)c(-n3nccn3)sc21 [Compound I-201]	–	–	–	9.00 to 9.52	–	–	7.40 to 8.00	1.01 to 2 (≈ 1.97 to 3.9 µM)	2.01 to 4 (≈ 3.92 to 7.8 µM)	2.01 to 4 (≈ 3.92 to 7.8 µM)
CCc1ccc(F)cc1[C@@H](O)Cn1c(=O)n(C(C)(C)C(N)=O)c(=O)c2c(C)c(-n3nccn3)sc21 [Compound I-202]	> 4.01	> 4.01	–	8.30 to 9.00	> 4.01	–	7.40 to 8.00	–	–	–
COc1ccccc1[C@H](Cn1c(=O)n([C@@H](C)C(=O)N(C)C(C)C)c(=O)c2c(C)c(-n3nccn3)sc21)OCCO [Compound I-207]	1.01 to 2 (≈ 1.77 to 3.5 µM)	1.01 to 2 (≈ 1.77 to 3.5 µM)	–	9.00 to 9.52	1.01 to 2 (≈ 1.77 to 3.5 µM)	–	8.00 to 8.30	–	–	–
COc1ccccc1[C@H](Cn1c(=O)n(C(C)(C)C(=O)NC(C)C)c(=O)c2c(C)c(-n3nccn3)sc21)OCCN1CC(F)C1 [Compound I-209]	–	–	–	8.30 to 9.00	–	–	< 7.40	0.25 to 1 (≈ 0.398 to 1.59 µM)	1.01 to 2 (≈ 1.61 to 3.19 µM)	0.25 to 1 (≈ 0.398 to 1.59 µM)
COc1ccc(F)cc1[C@H](Cn1c(=O)n(C(C)(C)C(=O)NC(C)C)c(=O)c2c(C)c(-n3nccn3)sc21)OCCC(=O)N(C)O [Compound I-219]	–	–	–	8.30 to 9.00	–	–	8.00 to 8.30	0.25 to 1 (≈ 0.387 to 1.55 µM)	0.25 to 1 (≈ 0.387 to 1.55 µM)	0.25 to 1 (≈ 0.387 to 1.55 µM)
COc1ccc(F)cc1[C@H](Cn1c(=O)n(C(C)(C)C(=O)NC(C)C)c(=O)c2c(C)c(-n3nccn3)sc21)OCCC(O)CO (stereo partly drawn) [Compound I-220]	0.25 to 1 (≈ 0.395 to 1.58 µM)	0.25 to 1 (≈ 0.395 to 1.58 µM)	–	8.30 to 9.00	0.25 to 1 (≈ 0.395 to 1.58 µM)	–	7.40 to 8.00	–	–	–

From patent publication US10800791B2, “Triazole ACC inhibitors and uses thereof” (Gilead Apollo, LLC, priority 2015, dated 2020)
